# Test results reported in US20260227408A1, “Compositions and Methods for Modulation of Immune Responses” (Flagship Pioneering Innovations VI, LLC, priority 2022, published 2026).
# Legend:
# [1] = tested on: Interferon Regulatory Factor (IRF) pathway in THP-1 dual reporter cells; assay: THP-1 dual reporter assay (IRF-Lucia luciferase) with TLR agonists; format: cell-based
# Experimental: (§1) To determine the effect of the Target Protein on TLR activity, the Target Protein, irrelevant proteins and controls were applied+/−established TLR agonists to a commercial reporter cell line which monitors the two main signal transduction pathways that respond to TLR activation. To determine which immune cells are most responsive to the Target Proteins, the Target Proteins were applied to Peripheral Blood Mononuclear Cells (PBMCs) and then 24 hours later the PBMCs were subjected to single cell RNA-seq using cell hashing.
# Dual Reporter Assay: From example: NF-kB-SEAP and IRF-Lucia luciferase reporter monocyte (THP1) cells (InvivoGen) are cultured in RPMI 1640 media supplemented with HEPES buffer (10 mM), sodium pyruvate (1 mM), glucose (4.5 g/L), fetal bovine serum (10%), penicillin (100 U/mL), streptomycin ([…]), and 2-mercaptoethanol (0.05 mM). THP1 cells are treated with 100 ng/mL LPS (Sigma-Aldrich) for 24 hrs, the target protein (final conc. 10 μM), or left untreated.
# After treatment, THP1 cells are cultured for 24 hrs and then assayed for reporter activity. Both reporter proteins are measurable in the cell culture supernatant when using QUANTI-Blue (InvivoGen), a SEAP detection reagent, and QUANTI-Luc (InvivoGen), a luciferase detection reagent. QUANTI-Blue is a colorimetric enzyme assay developed to determine any alkaline phosphatase activity in a biological sample, such as cell culture supernatant. QUANTI-Luc is a lyophilized assay reagent containing all the components required to quantitatively measure the activity of Lucia Luciferase other coelenterazine-utilizing luciferases. Increased reporter activity after treatment with target protein is observed in cells where the target protein is immune stimulating. Additionally, decreased reporter activity after treatment with the target protein is observed in cells where the target protein is immune dampening.
# [2] = tested on: Peripheral Blood Mononuclear Cells (PBMCs); assay: single cell RNA-seq of PBMCs treated with target protein; format: cell-based, human; settings: 24 hours, vs scrambled protein control, FIG. 5A, 5B
# Experimental: as §1
# scRNA-seq: From example: Shifts in cell populations after treatment with Target Proteins are assessed by single cell RNA-seq (scRNA-seq). Target proteins (e.g., listed in the Sequence Listing) are synthesized through Fluorenylmethyloxycarbonyl (Fmoc) protection group chemistry using Solid Phase Peptide Synthesis (SPPS). Human primary blood mononuclear cells are seeded at […] in each well of 12-well plate with 1 ml of RPMI-1640 (10% FBS). […]
# Post sequencing, reads are aligned to the human reference genome (GENCODE34/GRCH38). Reads are demultiplexed using DNA-barcoded antibodies and run through quality control (g. doublets are removed, singlet cells are selected with less than 15% mitochondria contamination at RNA levels and reads contain higher than 500 genes). […]
# [3] = 10 μM, 24 hours, vs scramble peptide, FIG. 4
substance,measurement,setting,value
SEQ ID NO: 37413: Target Protein validated as a modulator of the innate immune response; toll-like receptor (TLR) inhibitor (MAAPSNKTELAWSPRLAA; listed as Homo sapiens),"IRF response, co-treatment with TLR1/2 agonist",[1]; [3],inhibited
same,"IRF response, co-treatment with TLR2 agonist",[1]; [3],no significant effect
same,"IRF response, co-treatment with TLR3 agonist",[1]; [3],no significant effect
same,"IRF response, co-treatment with TLR4 agonist",[1]; [3],inhibited
same,"IRF response, co-treatment with TLR5 agonist",[1]; [3],no significant effect
same,"IRF response, co-treatment with TLR6/2 agonist",[1]; [3],inhibited
same,"IRF response, co-treatment with TLR7 agonist",[1]; [3],no significant effect
same,"IRF response, co-treatment with TLR8 agonist",[1]; [3],no significant effect
same,"IRF response, co-treatment with TLR9 agonist",[1]; [3],no significant effect
same,IRF signal transduction pathway response from several TLRs,"[1]; THP-1 dual reporter cells, FIG. 3, FIG. 4",significantly blocks
same,relative IRF activity (reporter gene expression),"[1]; increasing peptide concentrations (0, 2.5, 5, 7.5, and 10 PM) in presence of LPS, 24 hours, FIG. 3",inhibition
same,"effect on T-cells, B-cells, and NK-cells (up- and downregulated genes, scRNA-seq)",[2],relatively small effects
same,"effect on active monocytes and dendritic cells (up- and downregulated genes, scRNA-seq)",[2],strongly affected
